Results: patent publication US20210161902A1, “EPICHAPEROME INHIBITOR THERAPY FOR TRAUMATIC BRAIN INJURY AND SEQUELAE THEREOF” (Samus Therapeutics, Inc, priority 2017, published 2021)

Target: Hsp90 such as brain Hsp90
Assay: EC50 for binding to Hsp90 such as brain Hsp90
Conditions: concentration yielding half-maximal binding to Hsp90 such as brain Hsp90, or halving binding in a competition assay
Source text: Brain uptake may be indicative of binding of the epichaperome inhibitor to Hsp90 and preferably to brain Hsp90. Such binding assays may be carried out as described in published PCT application WO2008/005937.
BBB-permeable epichaperome inhibitors to be used in the methods provided herein may be further characterized by their EC50 for binding to Hsp90 such as brain Hsp90. (EC50, in this context, refers to the concentration of the inhibitor that yields half-maximal binding of the inhibitor to Hsp90 such as brain Hsp90, or alternatively if the measurement is performed in a competition assay it is the concentration of inhibitor at which the binding to Hsp90 is reduced by half.) Certain inhibitors may have an EC50 of 100 nM or less, including about 90 nM, about 80 nM, about 85 nM, about 70 nM, about 60 nM, about 50 nM, about 40 nM, about 30 nM, about 20 nM, about 10 nM, about 9 nM, about 8 nM, about 7 nM, about 6 nM, about 5 nM, about 4 nM, about 3 nM, about 2 nM, or about 1 nM. The EC50 might range from 0.1 to 10 nM, from 0.1 to 9 nM, from 0.1 to 8 nM, from 0.1 to 7 nM, from 0.1 to 6 nM, or from 0.1 to 5 nM. The EC50 might range from 0.1 to 20 nM, from 0.1 to 18 nM, from 0.1 to 15 nM, from 0.1 to 12 nM, or from 0.1 to 10 nM. In some instances, certain inhibitors have an EC50 of about 5-7 nM. […] In other instances, certain inhibitors have an EC50 of about 80-90 nM.

CC(C)(C)CNCCn1c(Sc2cc3c(cc2I)OCO3)nc2c(N)ncnc21 [Compound 1]
EC50: 6.9 nM
